Data taken from US8426587B2, “Haloallylamine inhibitors of SSAO/VAP-1 and uses therefor” (Pharmaxis Ltd., priority 2007, dated 2013).
Structures can show the parent of a compound that is named as a salt. Where two headings read alike, the source gives them in different places.

Tests used:
[1] = target: T1, Human SSAO/VAP-1 (Homo sapiens, UniProt Q16853); assay: Inhibition of amine oxidase activity of purified human SSAO/VAP-1 (Amplex Red); format: biochemical; conditions: purified human SSAO, 300 μM benzylamine
T1 sequence (Q16853 1-763): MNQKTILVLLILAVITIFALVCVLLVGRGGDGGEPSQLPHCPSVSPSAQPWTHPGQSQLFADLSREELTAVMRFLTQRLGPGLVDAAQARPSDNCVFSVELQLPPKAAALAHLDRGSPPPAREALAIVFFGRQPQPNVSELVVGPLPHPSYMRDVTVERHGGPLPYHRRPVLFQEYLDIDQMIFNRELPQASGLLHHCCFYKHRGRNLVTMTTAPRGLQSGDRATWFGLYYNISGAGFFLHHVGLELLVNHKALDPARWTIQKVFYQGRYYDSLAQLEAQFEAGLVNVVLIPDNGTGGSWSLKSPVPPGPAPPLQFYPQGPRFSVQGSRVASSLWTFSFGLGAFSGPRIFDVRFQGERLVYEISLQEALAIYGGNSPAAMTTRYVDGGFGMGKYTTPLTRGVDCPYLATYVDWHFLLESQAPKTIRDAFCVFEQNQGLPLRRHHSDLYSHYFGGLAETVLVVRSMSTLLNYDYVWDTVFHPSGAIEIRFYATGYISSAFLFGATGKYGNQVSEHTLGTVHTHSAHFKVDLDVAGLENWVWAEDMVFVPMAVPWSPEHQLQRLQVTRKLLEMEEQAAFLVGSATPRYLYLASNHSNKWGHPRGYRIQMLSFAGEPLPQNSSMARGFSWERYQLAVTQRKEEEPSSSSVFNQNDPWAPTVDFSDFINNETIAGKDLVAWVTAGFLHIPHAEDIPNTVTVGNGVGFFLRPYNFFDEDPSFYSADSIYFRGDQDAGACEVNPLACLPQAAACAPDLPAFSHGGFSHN
Protocol: To measure the SSAO activity, adipocyte homogenate (0.5 mg/mL) or adipocytes (adhering cells) containing 0.5 mM pargyline, or purified human SSAO was incubated in 0.1 M sodium phosphate buffer pH 7.4 with varying concentrations of test compounds for 30 min at 37° C. The homogenate was then incubated at 37° C. with 60 μM Amplex® Red, 0.75 U/mL HRP and 40 μM benzylamine (mouse SSAO) or 300 μM benzylamine (human SSAO) and the formation of resorufin was measured (excitation range 530-560 nm and emission at 590 nm) every 10 min in either a Tecan Infinite 200 or a BMG plate reader. The IC50 values were estimated using Graphpad Prism software. The IC50 is an estimation of the concentration of the test compound to inhibit the amine oxidase activity of SSAO/VAP-1 by 50%. The IC50 values of certain invention compounds are included in Table 1.

[2] = target: T2, SSAO/VAP-1 (Mus musculus, UniProt O70423); assay: In vivo inhibition of SSAO/VAP-1 activity in mouse genital fat; set-up: species or system BALB/C mice; conditions: ip
T2 construct: the genital fat was excised and frozen; The tissue was homogenized; from tissue; host or cells: genital fat of BALB/C mice
T2 sequence (O70423 1-765): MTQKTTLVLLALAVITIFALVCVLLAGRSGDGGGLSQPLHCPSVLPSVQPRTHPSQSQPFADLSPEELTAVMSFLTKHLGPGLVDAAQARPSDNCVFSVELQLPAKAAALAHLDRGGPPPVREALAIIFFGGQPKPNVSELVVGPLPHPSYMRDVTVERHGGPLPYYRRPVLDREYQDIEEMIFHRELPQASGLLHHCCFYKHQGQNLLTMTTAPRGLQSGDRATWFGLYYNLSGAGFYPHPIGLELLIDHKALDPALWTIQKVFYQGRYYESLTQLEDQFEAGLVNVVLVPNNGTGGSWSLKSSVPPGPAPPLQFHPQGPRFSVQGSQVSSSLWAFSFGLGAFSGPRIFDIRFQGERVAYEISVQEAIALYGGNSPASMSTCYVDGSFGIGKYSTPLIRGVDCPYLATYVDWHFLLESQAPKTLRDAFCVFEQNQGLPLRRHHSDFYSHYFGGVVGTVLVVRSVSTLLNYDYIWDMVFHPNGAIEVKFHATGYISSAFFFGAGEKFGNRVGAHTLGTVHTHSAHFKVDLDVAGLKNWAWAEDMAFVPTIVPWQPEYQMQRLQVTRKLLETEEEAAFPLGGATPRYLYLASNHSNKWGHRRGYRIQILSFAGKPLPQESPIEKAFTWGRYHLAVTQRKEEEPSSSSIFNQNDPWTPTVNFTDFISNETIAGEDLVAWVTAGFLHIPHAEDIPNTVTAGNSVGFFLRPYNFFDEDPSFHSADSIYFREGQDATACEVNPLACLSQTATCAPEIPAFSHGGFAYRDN
Protocol: In vivo inhibition was assessed in mouse genital fat, a tissue with high SSAO/VAP-1 expression. 10 BALB/C mice (5 males and 5 females) were administered 0 mg/kg, 10 mg/kg, 30 mg/kg or 100 mg/kg SSAO/VAP-1 inhibitor by intraperitoneal injection. Two hours after administration the mice were sacrificed and the genital fat was excised and frozen. The tissue was homogenized in 0.01 M sodium phosphate buffer pH 7.4 (10 mL/g) and used to measure SSAO activity using Amplex® Red. ED50 was estimated Using Graphpad Prism software.

[3] = tested on: LPS-induced pulmonary inflammation; conditions: cited from earlier work
[4] = tested on: experimental autoimmune encephalomyelitis; conditions: reported in US 2006/0025438 A1; cited from earlier work
[5] = female BALB/C mice, intraperitoneal, genital fat SSAO activity two hours after administration, read-out: Female Mice ED50 [ip]
[6] = male BALB/C mice, intraperitoneal, genital fat SSAO activity two hours after administration, read-out: Male Mice ED50 [ip]

Structure (SMILES) | IC50 ([1]; 30 min at 37° C. preincubation) | ED50 [2, 5] | ED50 [2, 6] | ED50 ([2]; read-out: Female Mice ED50 [ip]) | ED50 ([2]; read-out: Male Mice ED50 [ip]) | IC50 [1] | BAL cell counts ([3]; mouse overexpressing human SSAO/VAP-1, LPS) | LPS-induced increase in TNF-a ([3]; mouse overexpressing human SSAO/VAP-1) | Inhibition of experimental autoimmune encephalomyelitis [4]
Cc1nc2cc(OC/C(F)=C\CN)ccc2s1.Cl [(E)-3-Fluoro-4-(2-methylbenzo[d]thiazol-5-yloxy)but-2-en-1-amine hydrochloride] | < 1000 nM | < 100 mg/kg | < 50 mg/kg |  |  |  |  |  | 
CS(=O)(=O)c1ccc(OC/C(F)=C\CN)cc1.Cl [(E)-3-Fluoro-4-(4-(methylsulfonyl)phenoxy)but-2-en-1-amine hydrochloride] | < 1000 nM | < 300 mg/kg | < 100 mg/kg |  |  |  |  |  | 
NC/C=C(/F)COc1ccc(C(=O)NC2CCCCC2)cc1 [(E)-4-(4-amino-2-fluorobut-2-enyloxy)-N-cyclohexylbenzamide hydrochloride] | < 1000 nM |  |  | < 50 mg/kg | < 50 mg/kg |  |  |  | 
C[C@H](NS(=O)(=O)c1ccc(OC/C(F)=C\CN)cc1)c1ccccc1.Cl [(S,E)-4-(4-Amino-2-fluorobut-2-enyloxy)-N-(1-phenylethyl)benzenesulfonamide] | < 1000 nM | < 50 mg/kg | < 50 mg/kg |  |  |  |  |  | 
NC/C(=C/F)CCc1ccc(F)cc1 [Mofegiline, reference compound] |  | < 1 mg/kg | < 1 mg/kg |  |  | 21 nM | significantly reduces | significantly attentuates | inhibit experimental autoimmune encephalomyelitis
